Experimental findings from patent publication US20110130437A1, “SALT FORMS OF A 6-FLUORO-1,2-DIHYDRO-2-OXO-3H-INDOL-3-YLIDENE DERIVATIVE, PROCESS FOR THEIR MANUFACTURE AND PHARMACEUTICAL COMPOSITIONS CONTAINING SAME” (BOEHRINGER INGELHEIM INTERNATIONAL GMBH, priority 2008, published 2011) are described below.

Entries after “also recorded” stand apart in the source; their conditions may differ.

What all share (assay type): physicochemical
Data set [1] is described as follows: Intrinsic dissolution rate. An excerpt:
(§1) Furthermore, although all the above mentioned salt forms are characterized by a low solubility over almost the whole pH range, the chloride salt form presents the advantage of a better dissolution rate.

The nature of data set [2]: Solubility in aqueous media over the pH range. Particulars: over a wide pH-range.
Text: as §1

Data set [3] can be described thus: Thermal gravimetry (TG) loss of weight. Particulars: for loss of weight as measured by thermal gravimetry (TG): crystalline salt forms. As for the experimental part: The crystalline form of the monohydrochloride salt according to the invention is further characterised by a weight loss of ca. 1.6-1.8% water up to 130° C., as determined by Thermal […]). Under standard conditions, the monohydrochloride salt form of the compound according to the invention is present in the form of the hemihydrate, from which water escapes at a temperature of about 130° C. The TG diagram is also depicted in FIG. 1. For example, the sodium and tartrate salt forms have less good crystallinity properties, which affects the stability of the drug substance. […] Thus, the chloride, succinate and bromide salt forms have unexpectedly better crystalline properties for pharmaceutical development than the sodium and tartrate salt forms.

Data set [4] is described as follows: Hygroscopicity of the salt forms. The following applies: for hygroscopicity: in words, judged from TG loss of weight. An excerpt:
The monohydrochloride salt form of the compound according to the invention, namely 4-[(Z)-[[4-[(dimethylamino)methyl]phenyl]amino](6-fluoro-1,2-dihydro-2-oxo-3H-indol-3-ylidene)methyl]-benzenepropanoic acid monohydrochloride, is a yellow crystalline powder with irregular shaped crystals. […] For example, the sodium and tartrate salt forms have less good crystallinity properties, which affects the stability of the drug substance. […] Thus, the chloride, succinate and bromide salt forms have unexpectedly better crystalline properties for pharmaceutical development than the sodium and tartrate salt forms.

Data set [5] in a line: Crystallinity after intensive milling or compression. From the text: The monohydrochloride salt form of the compound according to the invention, namely 4-[(Z)-[[4-[(dimethylamino)methyl]phenyl]amino](6-fluoro-1,2-dihydro-2-oxo-3H-indol-3-ylidene)methyl]-benzenepropanoic acid monohydrochloride, is a yellow crystalline powder with irregular shaped crystals.

In the case of `CN(C)Cc1ccc(N/C(=C2\C(=O)Nc3cc(F)ccc32)c2ccc(CCC(=O)O)cc2)cc1` [succinate, 4-[(Z)-[[4-[(dimethylamino)methyl]phenyl]amino](6-fluoro-1,2-dihydro-2-oxo-3H-indol-3-ylidene)methyl]-benzenepropanoic acid], the intrinsic dissolution rate result in data set [1] was “very slow”. Further, in data set [2], the “solubility in aqueous media” value is “rather low solubility”. Also, the “loss of weight as measured by thermal gravimetry (TG)” value (from here on “loss of weight as measured”) in data set [3] is listed as “ca. 1.5%”. Besides, the hygroscopicity result in data set [4] is on record as “slight hygroscopicity”.

As to `CN(C)Cc1ccc(N/C(=C2\C(=O)Nc3cc(F)ccc32)c2ccc(CCC(=O)O)cc2)cc1` [tartrate, 4-[(Z)-[[4-[(dimethylamino)methyl]phenyl]amino](6-fluoro-1,2-dihydro-2-oxo-3H-indol-3-ylidene)methyl]-benzenepropanoic acid], the “loss of weight as measured” value in data set [3] is given as “ca. 4.3%”. Besides, the hygroscopicity entry in data set [4] was “strong hygroscopicity”.

On to `CN(C)Cc1ccc(N/C(=C2\C(=O)Nc3cc(F)ccc32)c2ccc(CCC(=O)O)cc2)cc1.Cl` [monohydrochloride, 4-[(Z)-[[4-[(dimethylamino)methyl]phenyl]amino](6-fluoro-1,2-dihydro-2-oxo-3H-indol-3-ylidene)methyl]-benzenepropanoic acid monohydrochloride], for which, in data set [1], the intrinsic dissolution rate entry was “acceptable fast”. In data set [2], the “solubility in aqueous media” value was “rather low solubility”. Besides, in data set [3], the “loss of weight as measured” value is on record as “ca. 1.7%”. The “weight loss of water, determined by Thermal Gravimetry (TG)” value in data set [3] (up to 130° C., crystalline form) is 1.6-1.8%. The change in crystallinity result in data set [5] was “No significant change in crystallinity”. The hygroscopicity entry in data set [4] (listed as monohydrochloride salt form, monohydrochloride) is on record as “slightly hygroscopic; also recorded: slight hygroscopicity”; in data set [4] (monohydrochloride) it was “slight hygroscopicity”. For the same molecule, the “change in crystal modification” value in data set [4] (on moisture uptake (slightly hygroscopic)) is recorded as “no change in crystal modification is observed”.

`CN(C)Cc1ccc(N/C(=C2\C(=O)Nc3cc(F)ccc32)c2ccc(CCC(=O)O)cc2)cc1` [sodium, 4-[(Z)-[[4-[(dimethylamino)methyl]phenyl]amino](6-fluoro-1,2-dihydro-2-oxo-3H-indol-3-ylidene)methyl]-benzenepropanoic acid]: in data set [3], the “loss of weight as measured” value is listed as “ca. 15%”. Further, in data set [4], the hygroscopicity entry is “strong hygroscopicity”.

Take `CN(C)Cc1ccc(N/C(=C2\C(=O)Nc3cc(F)ccc32)c2ccc(CCC(=O)O)cc2)cc1` [bromide, 4-[(Z)-[[4-[(dimethylamino)methyl]phenyl]amino](6-fluoro-1,2-dihydro-2-oxo-3H-indol-3-ylidene)methyl]-benzenepropanoic acid]: in data set [1], the intrinsic dissolution rate result is listed as “very slow”. Moreover, in data set [2], the “solubility in aqueous media” value was “rather low solubility”. For the same molecule, the “loss of weight as measured” value in data set [3] is recorded as “ca. 2.2%”. Besides, the hygroscopicity result in data set [4] was “slight hygroscopicity”.
